Entries after “also recorded” stand apart in the source; their conditions may differ. Read-outs that look alike come from different tables or passages of the source. Values belong to the molecule of their own block, whether it stands above or below them.
Columns and labels:
[1] = target: T1, ROS methyltransferase (bovine retinal rod outer segment S-adenosyl-L-methionine-dependent methyltransferase) (Bos taurus, UniProt A0AAA9SD88); test: ROS methyltransferase assay: compounds as substrates (Km) or inhibitors (Ki) of AFC methylation; assay type: biochemical; conditions: for inhibition of methyltransferase activity towards AFC / substrate activity for ROS methyltransferase / competitive inhibition of AFC methylation: in words
T1 construct: utilizing ROS membranes as the source of methyltransferase enzyme; tissue Wanda Lawson Co., Lincoln, Nebr; (frozen bovine retinas); host or cells: bovine retinal rod outer segment (ROS) membranes
T1 sequence (A0AAA9SD88 1-284): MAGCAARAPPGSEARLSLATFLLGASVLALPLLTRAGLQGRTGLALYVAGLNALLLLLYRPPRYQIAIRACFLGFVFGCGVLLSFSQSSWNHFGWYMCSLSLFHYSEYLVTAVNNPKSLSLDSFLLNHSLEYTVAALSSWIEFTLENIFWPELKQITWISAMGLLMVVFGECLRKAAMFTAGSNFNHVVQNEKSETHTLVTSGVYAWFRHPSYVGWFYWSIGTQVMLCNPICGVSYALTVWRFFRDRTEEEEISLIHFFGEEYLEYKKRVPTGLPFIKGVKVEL
Method: Standard assays may be used to determine Km for substrates and Ki for inhibitors. […] The values of Ki and Km are calculated from kinetic assays by conventional means (Fersht, Enzyme Structure and Mechanism, W. H. Freeman and Co., New York, 1984). Examples are provided below to illustrate suitable assays, and are not intended to limit the invention.
One suitable assay of methylation functions uses bovine retinal rod outer segment (ROS) methyltransferase and a natural substrate, transducin. […] Another suitable assay uses N-acetyl-S-farnesylcysteine as a substrate for ROS methyltransferase.
The bovine retinal transducin γ subunit has a carboxyl-terminal --CAAX motif and undergoes a farnesylation reaction similar to that observed on ras (Lai et al., Proc. Natl. Acad. Sci. USA 87:7673, 1990; Fukada et al., Nature 346:658, 1990).
(§1) Frozen bovine retinas (Wanda Lawson Co., Lincoln, Nebr.) were used to prepare ROS membranes depleted of peripheral proteins using a modification of the procedure of Wessling-Resnick et al. (J. Biol. Chem. 262:3697, 1987). Briefly, ROS membranes were washed with low ionic strength buffer and 100μM GTP, resuspended in 50 mM Hepes-Na (pH 7.4), 100 mM NaCl, 5 mM MgCl2, 0.1 mM phenylmethylsulfonyl fluoride, 0.1 mM dithiothreitol (buffer A) and stored in small aliquots at -80° C. until used. Transducin was isolated by disrupting ROS membranes by passing the membranes through a narrow needle and washing the disrupted membranes in a series of centrifugation steps as described by Wessling-Resnick et al. (J. Biol. Chem. 262:3697, 1987). Finally transducin was eluted from the membranes with 100μM GTP. The transducin-enriched supernatant was concentrated using Centriprep (Amicon).
(§2) For initial studies, the reaction mixture contained 20 μCi of S-adenosyl-[methyl-^3 H] methionine ([^3 H]SAM) (2.34 μM, Amersham) and an aliquot of ROS (120μg of total protein) or of washed ROS membranes (80μg of total protein) in 100 μl of buffer A. Purified transducin was added to this mixture to a concentration of 5 μM. AFC, N-acetylcysteine, or AFC methylester was added in 2 μl of dimethyl sulfoxide to give a final concentration of 20 μM, and the reaction was carried out at 37° C.
The above-described methyltransferase assay was used to analyze the analogs described above.

[2] = target: T2, methyltransferase activity present in ROS membrane (Bos taurus, UniProt A0AAA9SD88); test: In vitro [3H]SAM methylation of proteins by ROS membrane methyltransferase; assay type: biochemical, bovine; conditions: in words
T2 construct: substrates transducin gamma, 23-29 kDa small G proteins, AFC
T2 sequence (A0AAA9SD88 1-284): as above
Method: as §1, §2
Incubation of bovine ROS with [^3 H]SAM results in the radioactive labeling of polypeptides with apparent molecular masses of 88, 60, 23-29, and 6 kDa. The methylation of the 88-kDa protein (α subunit of retinal phosphodiesterase) and of the 23- to 29-kDa polypeptides has already been reported (Swanson et al., J. Biol. Chem. 258:10599, 1983; Ota et al., J. Biol. Chem. 264:12879, 1989). The 6-kDa polypeptide coincides with Tγ in SDS/polyacrylamide gels. Moreover, incubation of purified transducin with extensively washed ROS and [^3 H]SAM results in the labeling of the 6-kDa polypeptide and the membrane-associated 23- to 29-kDa proteins. […]

HL-60 cells = test: Inhibition of HL-60 cell proliferation (trypan blue dye exclusion count); assay type: cell-based; conditions: FIG. 2; in words
Method: FTA, FTP, AFHC and AFC were tested for their ability to inhibit cell growth as follows.
HL-60 cells (ATCC CCL 240, American Type Culture Collection, Rockville, Md.) which harbor an activated ras gene were grown in RPMI medium (Gibco/BRL, Bethesda, Md.) supplemented with 10-15% fetal calf serum, L-glutamine, penicillin and streptomycin. These cells were treated with various concentrations of FTA, FTP, AFHC, or AFC dissolved in dimethyl sulfoxide (DMSO) or with DMSO only (In all experiments the final DMSO concentration was 1% or less). Treated ans untreated cells were incubated under standard culture conditions for several days. Cells were counted manually at 24 hour intervals using a trypan blue dye exclusion assay which counts only live, intact cells.

cell growth = conditions: Maltese et al., 1985; cited from earlier work
[3] = tested on: cellular synthesis of mevalonic acid; conditions: in words; cited from earlier work
ras proteins = conditions: Hancock et al., 1989; cited from earlier work
[4] = tested on: methyltransferase activity in HL-60 cells; test: Methylation of AFC by activity present in HL-60 cell membrane; assay type: biochemical; conditions: in words
[5] = Table 1, substrates, read-out: Km
[6] = Table 1, conventional inhibitors, read-out: Ki
[7] = calculated, read-out: Ki for inhibition of AFC methylation
[8] = ROS membranes as source of enzyme, read-out: KM for methylation

Molecule: CC(C)=CCC/C(C)=C/CC/C(C)=C/C[S+]([O-])CC(=O)O (stereo not drawn) [2-farnesylthioacetic acid sulfoxide]
Ki [1, 6]: < 10 µM

Molecule: CC(C)=CCC/C(C)=C/CC/C(C)=C/CSC(C)CC(=O)O (stereo not drawn) [3-farnesylthiobutyric acid]
Ki [1, 6]: 30 to 40 µM

Molecule: CC(=O)NC(C[Se]C/C=C(\C)CC/C=C(\C)CCC=C(C)C)C(=O)O (racemic) [N-acetyl-Se-farnesyl-D,L-cysteine]
Km ([1]; Table 1, substrates): 51 µM

Molecule: Nc1ncnc2c1ncn2[C@@H]1O[C@H](CSCC[C@H](N)C(=O)O)[C@@H](O)[C@H]1O [SAH, reference compound]
inhibition of methyltransferase activity present in ROS membrane [2]: inhibited | inhibition of methyltransferase activity towards AFC [1]: inhibited

Molecule: N-acetylgeranylgeranylcysteine
status as substrate (in place of Km) ([1]; Table 1): substrate

Molecule: CC(=O)N[C@@H](CSCCC(C)CCCC(C)CCCC(C)C)C(=O)O (stereo partly drawn) [ATC, N-acetyl-S-(3,7,11-trimethyldodecanyl)-L-cysteine]
substrate activity for ROS methyltransferase [1]: inactive as a substrate; also recorded: lack of activity

Molecule: CC(C)=CCC/C(C)=C/CC/C(C)=C/CS/C=C/C(=O)O [3-farnesylthio-trans-acrylic acid]
Ki [1, 6]: 37 µM

Molecule: C[S+](CC[C@H](N)C(=O)O)C[C@H]1O[C@@H](n2cnc3c(N)ncnc32)[C@H](O)[C@@H]1O (stereo partly drawn) [AdoMet, S-adenosyl-L-methionine, reference compound]
Km ([1]; AFC system, ROS membranes, read-out: apparent KM): 2 µM

Molecule: CC(C)=CCC/C(C)=C/CC/C(C)=C/C[Se]CCC(=O)O
Ki [1]: 29 µM

Molecule: CC[C@H](C)C(=O)O[C@H]1C[C@@H](C)C=C2C=C[C@H](C)[C@H](CC[C@@H]3C[C@@H](O)CC(=O)O3)[C@H]21 [Mevinolin]
cell growth block (cell growth): blocked in cell growth in the G1 phase and the G2/M phase | cellular synthesis of mevalonic acid [3]: inhibits | post-translational processing of ras proteins (ras proteins): affects | ras membrane localization (ras proteins): interferes

Molecule: CCCCCCC(CC(=O)O)SC/C=C(\C)CC/C=C(\C)CCC=C(C)C (stereo not drawn) [3-farnesylthiononanoic acid]
status as conventional inhibitor (in place of Ki) ([1]; Table 1): inhibitor

Molecule: CSC(CSC/C=C(\C)CC/C=C(\C)CCC=C(C)C)=NO [2-farnesylthio-S-methyl]
status as conventional inhibitor (in place of Ki) ([1]; Table 1): inhibitor

Molecule: CC(=O)N[C@@H](CS)C(=O)O [N-acetylcysteine, reference compound]
substrate activity for ROS methyltransferase [1]: not a substrate

Molecule: CC(C)=CCC/C(C)=C/CC/C(C)=C/CSCC(N)C(=O)O (stereo not drawn) [S-farnesylcysteine]
status as conventional inhibitor (in place of Ki) ([1]; Table 1): inhibitor

Second part, led by results:

Km [1, 5]: 42 µM
Molecule: CC(=O)N[C@H](CSC/C=C(\C)CC/C=C(\C)CCC=C(C)C)C(=O)O [N-acetyl-S-farnesyl-D-cysteine]

status as substrate (in place of Km) ([1]; Table 1): substrate
Molecule: C=C(CSC/C=C(\C)CC/C=C(\C)CCC=C(C)C)C(=O)O [3-farnesylthio-2-methylenepropionic acid]

status as substrate (in place of Km) ([1]; Table 1): substrate
Molecule: CC(C)=CCC/C(C)=C/CC/C(C)=C/CSC[C@H](NC(=O)c1ccccc1)C(=O)O [N-benzoyl-S-farnesylcysteine]

status as conventional inhibitor (in place of Ki) ([1]; Table 1): inhibitor
Molecule: CC(C)=CCC/C(C)=C/CC/C(C)=C/CSCCC#N [3-farnesylthiopropionitrile]

status as conventional inhibitor (in place of Ki) ([1]; Table 1): inhibitor
Molecule: disodium 2-farnesylthioethyl phosphate

status as conventional inhibitor (in place of Ki) ([1]; Table 1): inhibitor
Molecule: CC(C)=CCC/C(C)=C/CC/C(C)=C/CSCCC(N)=O [3-farnesylthiopropionamide]

Km [1, 5]: 26 µM
Molecule: CC(C)=CCC/C(C)=C/CC/C(C)=C/COCCC(=O)O [3-farnesyloxypropionic acid]

Km [1, 5]: 21 µM
Molecule: CC(C)=CCC/C(C)=C/CC/C(C)=C/CSCC(C)C(=O)O (stereo not drawn) [2-methyl-3-farnesylthiopropionic acid]

Ki [1, 6]: 36.3 µM | Ki [1, 7]: 30.2 µM | competitive inhibition of AFC methylation [1]: potent competitive inhibitors
Molecule: CC(=O)N[C@@H](CCSC/C=C(\C)CC/C=C(\C)CCC=C(C)C)C(=O)O [AFHC, N-acetyl-S-farnesylhomocysteine]
substrate activity for ROS methyltransferase [1]: not a substrate; also recorded: not substrates | inhibition of proliferation of HL-60 cells (HL-60 cells): can inhibit proliferation

status as conventional inhibitor (in place of Ki) ([1]; Table 1): inhibitor
Molecule: CC(C)=CCC/C(C)=C/CC/C(C)=C/CSCC[N+](=O)[O-] [2-farnesylthio-1-nitroethane]

status as conventional inhibitor (in place of Ki) ([1]; Table 1): inhibitor
Molecule: 3-farnesylthiocyclohexanecarboxylic acid

incorporation of label by [3H]SAM into proteins ([2]; ROS): reduced incorporation of label | Km [1, 8]: 23 µM | Km [1, 5]: 23 µM
Molecule: CC(=O)N[C@@H](CSC/C=C(\C)CC/C=C(\C)CCC=C(C)C)C(=O)O [AFC, N-acetyl-S-farnesylcysteine]
substrate activity for ROS methyltransferase [1]: acts as a substrate; also recorded: serves as a substrate; also recorded: can serve as a substrate | inhibition of proliferation of HL-60 cells (HL-60 cells): can inhibit proliferation | methylation by activity in membrane of HL-60 cells [4]: can be methylated

status as substrate (in place of Km) ([1]; Table 1): substrate
Molecule: CC(=O)N[C@@H](CSC/C=C(\C)CCC=C(C)C)C(=O)O [AGC, N-acetyl-S-geranyl-L-cysteine]
substrate activity for ROS methyltransferase [1]: exceedingly weak substrate; also recorded: marginal activity

Ki [1, 6]: 13.2 µM | Ki [1, 7]: 11.6 µM | methylation of AFCS ([1]; even at 500 μM): not methylated | competitive inhibition of AFC methylation [1]: potent competitive inhibitors
Molecule: CC(=O)N[C@@H](C[S+]([O-])C/C=C(\C)CC/C=C(\C)CCC=C(C)C)C(=O)O (stereo partly drawn) [AFCS, N-acetyl-S-oxo-farnesylcysteine]
substrate activity for ROS methyltransferase [1]: lack of activity; also recorded: not substrates

Km [1, 8]: 13.7 µM | Km [1, 5]: 14 µM
Molecule: CC(C)=CCC/C(C)=C/CC/C(C)=C/CSCCC(=O)O [FTP, 3-farnesylthiopropionic acid]
substrate activity for ROS methyltransferase [1]: active substrate; also recorded: also a substrate | inhibition of proliferation of HL-60 cells (HL-60 cells): can inhibit proliferation

status as conventional inhibitor (in place of Ki) ([1]; Table 1): inhibitor
Molecule: CC(C)=CCC/C(C)=C/CC/C(C)=C/CSCC(C)[N+](=O)[O-] (stereo not drawn) [3-farnesylthio-2-nitropropane]

inhibition of methyltransferase activity present in ROS membrane [2]: inhibited | inhibition of methyltransferase activity towards AFC [1]: inhibited
Molecule: Nc1ncnc2c1ncn2[C@@H]1O[C@H](C[C@@H](N)CC[C@H](N)C(=O)O)[C@@H](O)[C@H]1O [sinefungin, reference compound]

Ki [1, 6]: 40 µM
Molecule: CC(C)=CCC/C(C)=C/CC/C(C)=C/CS/C=C\C(=O)O [3-farnesylthio-cis-acrylic acid]

— patent US5202456A, “Compounds for inhibition of protein methylation” (The President and Fellows of Harvard College, priority 1991, dated 1993)
